Data as given in US20250241976A1, “ADMINISTRATION OF AN ANTICANCER PEPTIDE” (Verrica Pharmaceuticals, Inc., priority 2024, published 2025).
Where a SMILES comes first, the peptide text is derived from it. [ ]: non-standard residue; d: D form. Dip = N[C@H](C(=O)O)C(c1ccccc1)c1ccccc1

Key:
[1] = Storage of reconstituted Peptide A solution; type: physicochemical
Method: (§1) Peptide A was provided as the acetate salt, 20 mg of lyophilized powder per vial for injection. The powder was reconstituted in saline to a concentration ranging from 4-20 mg/mL based upon the target dose and volume for each subject. Peptide A was supplied in colorless glass vials (Ph. Eur. hydrolytic class I) fitted with rubber stopper (Ph. Eur. type I).
Peptide A vials (20 mg/vial) were stored at 2-8° C. (36-46° F.) or −20±5° C. (−13 to 5° F.) protected from light at the study site, separated from other drugs. The reconstituted Peptide A solution can be stored for up to 12 hours in a refrigerator at 2-8° C. (36-46° F.). Syringes with Peptide A drawn from the vial can be stored for up to 4 hours at 20-25° C. (68-77° F.) protected from light. Any unused portion was discarded.

[2] = tested on: basal cell carcinoma (BCC) lesion; experiment: Clinical study: intradermal injection of Peptide A into basal cell carcinoma lesions, with TRAEs, withdrawals and necrosis recorded; type: in vivo, human
Method: This study involved human adults ≥18 years of age with clinically suspected BCC with at least 1 (and up to 5) eligible lesion(s) suitable for biopsy and excision. The size of the lesion(s) were ≥0.5 cm and ≤2 cm in longest diameter prior to punch biopsy or ≥1 cm and ≤2 cm in longest diameter prior to shave biopsy. Histological diagnosis of nodular, micronodular, or superficial BCC, as confirmed by punch or shave biopsy, was performed within 90 days of treatment.
as §1
Peptide A (acetate salt) was administered via intradermal injection into a single target lesion (between ≥0.5 cm and ≤2 cm in longest diameter) using the 1-mL syringe and 30-gauge 0.5-inch needle. The subjects were positioned in a way so that the target lesion lies flat, to avoid any dependent areas that may be susceptible to leakage of the pharmaceutical composition. Subsequent injections for the same lesion were given in remaining nonnecrotic areas of the lesion, as assessed prior to treatment. […]
Cohort 2 was assigned a regimen of 8 mg of Peptide A for each treatment day (with no partitioned administration on any day).
[…] The total 500 μL (8 mg) dosage volume is divided into 2 injections given at least 15 minutes and no more than 30 minutes apart, with 30% (150 μL) administered in the first injection and the remaining 70% (350 μL) with the second injection.
A radial administration method was also used for Cohorts 4 and 5. The formulation with Peptide A is injected intradermally for all injections and subcutaneous injection should be avoided. It is important to ensure adequate and even distribution of Peptide A across the entire base of the lesion. To accomplish adequate and even distribution of Peptide A across the entire lesion: The first 150 μL is injected as centrally as possible such that Peptide A can distribute radially outward; and the second (350 μL) portion is injected in a clockface fashion (i.e., at 12, 3, 6, 9 o'clock as shown in FIG. 1) as needed to ensure uniform distribution into the periphery of the lesion. The needle is inserted at a 10- to 20-degree angle for a flat lesion, or at an increased angle (i.e., greater than 20-degree) for a raised lesion.

Storage time of syringes with Peptide A drawn from the vial ([1]; 20-25° C., protected from light): up to 4 hours | Storage time of reconstituted Peptide A solution ([1]; reconstituted in saline, refrigerator at 2-8° C.): up to 12 hours
SMILES: NCCCC[C@H](NC(=O)[C@@H](NC(=O)[C@H](Cc1c[nH]c2ccccc12)NC(=O)[C@H](CCCCN)NC(=O)[C@H](CCCCN)NC(=O)[C@H](Cc1c[nH]c2ccccc12)NC(=O)[C@H](Cc1c[nH]c2ccccc12)NC(=O)[C@H](CCCCN)NC(=O)[C@@H](N)CCCCN)C(c1ccccc1)c1ccccc1)C(N)=O [Peptide A, KKWWKKWDipK-NH2] (H-KKWWKKW[Dip]K-NH2)
Subjects experiencing TRAEs of burning and pain at the injection site ([2]; Cohorts 1 and 2, 4 mg then 8 mg or 8 mg daily, no partitioned administration): Several subjects | Subjects withdrawn from treatment due to TRAEs ([2]; Cohorts 1 and 2, no partitioned administration): Two subjects withdrew | Change in TRAEs ([2]; Cohorts 4 and 5, partitioned (30%/70%, 15-30 min apart) and radial administration, 8 mg in 500 μL): marked decrease | Withdrawal from study treatment due to TRAEs of burning or pain at the injection site ([2]; Cohorts 4 and 5 and expansion cohorts (10, 10, 26, 27 subjects enrolled), partitioned and radial administration, 8 mg): No subjects have withdrawn from study | Treatment status after TRAE ([2]; Subject 3, Cohort 1, W1D2, no partitioned administration, subject withdrawn from treatment): Discontinued | Lesion necrosis status ([2]; Subject 5, Cohort 1, W1D3 after 4 mg W1D1 and 8 mg W1D2, no partitioned administration, no injection given): Complete | TRAEs (pain severity) ([2]; Subject 8, Cohort 2, 8 mg on W1D1, no partitioned administration): experiencing moderate | Duration of pain post-treatment ([2]; Subject 8, Cohort 2, 8 mg, no partitioned administration): about 3-4 hours post- | Treatment status after TRAE ([2]; Subject 8, Cohort 2, W1D2, no partitioned administration, subject withdrew from treatment): Discontinued | TRAEs reported ([2]; Subject 9, Cohort 2, after the W1D2 treatment (8 mg), no partitioned administration, subject continued treatment): injection-site burning
